The structures appear in SMILES notation.

By IC50 is commonly meant the concentration that gives 50% inhibition.

This assay deals with PD-L1 His protein / PD-1 Fc protein (Homo sapiens, UniProt Q9NZQ7). As to the kind of experiment: HTRF Assay (PD-1/PD-L1 interaction). The format is binding. Conditions: PD-L1 His 6 nM, PD-1 Fc 6 nM. The essentials: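 HTRF: PD-L1 His (6 nM final), compound (3-fold dilutions, 20 μM to 0.001 μM final) and PD-1 Fc (6 nM final) preincubated 15 min at room temperature. Anti-human IgG-XL665 and anti-6HIS Tb cryptate (mixed at 6.7 nM and 0.35 nM) then added for 1 h at room temperature before reading.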
Chain of PD-L1 His protein / PD-1 Fc protein (Q9NZQ7 19-238 limits assumed): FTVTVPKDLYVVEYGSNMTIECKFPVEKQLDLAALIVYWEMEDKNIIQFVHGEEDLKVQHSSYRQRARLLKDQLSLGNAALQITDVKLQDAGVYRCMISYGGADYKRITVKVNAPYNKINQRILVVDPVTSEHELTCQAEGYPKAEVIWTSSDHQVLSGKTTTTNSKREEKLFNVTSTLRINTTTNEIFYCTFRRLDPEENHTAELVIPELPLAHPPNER
Compound `COc1nc(-c2cccc(-c3cccc(-c4cc5c(=O)n(C)c(CNCCO)nn5c4)c3Cl)c2Cl)ccc1CNC[C@@H]1CCC(=O)N1` [Example 351, (S)-6-(2,2′-Dichloro-3′-(6-methoxy-5-((((5-oxopyrrolidin-2-yl)methyl)amino)methyl)pyridin-2-yl)-[1,1′-biphenyl]-3-yl)-2-(((2-hydroxyethyl)amino)methyl)-3-methylpyrrolo[2,1-f][1,2,4]triazin-4(3H)-one] registered an IC50 of 200 nM. The figure for `COc1nc(-c2cccc(-c3cccc(-c4ccc5nc(CNCCO)cn5n4)c3Cl)c2Cl)ccc1CNC[C@@H]1CCC(=O)N1` [Example 352, (5S)-5-[[[6-[2-Chloro-3-[2-chloro-3-[2-[(2-hydroxyethylamino)methyl]imidazo[1,2-b]pyridazin-6-yl]phenyl]phenyl]-2-methoxy-3-pyridyl]methylamino]methyl]pyrrolidin-2-one] is 0.5 nM; for `COc1nc(-c2cccc(-c3cccc(-c4ccc5nc(CNC[C@H](C)O)cn5n4)c3Cl)c2Cl)ccc1CNC[C@@H]1CCC(=O)N1` [Example 354, (5S)-5-[[[6-[2-Chloro-3-[2-chloro-3-[2-[[[(2S)-2-hydroxypropyl]amino]methyl]imidazo[1,2-b]pyridazin-6-yl]phenyl]phenyl]-2-methoxy-3-pyridyl]methylamino]methyl]pyrrolidin-2-one] it is 0.8 nM. To `COc1nc(-c2cccc(-c3cccc(-c4ccc5nc(CNC[C@@H](O)CC(=O)N(C)C)cn5n4)c3Cl)c2Cl)ccc1CNC[C@@H]1CCC(=O)N1` [Example 355, (3S)-4-[[6-[2-Chloro-3-[2-chloro-3-[6-methoxy-5-[[[(2S)-5-oxopyrrolidin-2-yl]methylamino]methyl]-2-pyridyl]phenyl]phenyl]imidazo[1,2-b]pyridazin-2-yl]methylamino]-3-hydroxy-N,N-dimethyl-butanamide] belongs 0.1 nM; to `COc1nc(-c2cccc(-c3cccc(-c4ccc5nc(CNC[C@@H]6CCC(=O)N6)cn5c4)c3Cl)c2Cl)ccc1CNC[C@@H]1CCC(=O)N1` [Example 356, (5S)-5-[[[6-[2-Chloro-3-[2-chloro-3-[2-[[[(2S)-5-oxopyrrolidin-2-yl]methylamino]methyl]imidazo[1,2-a]pyridin-6-yl]phenyl]phenyl]-2-methoxy-3-pyridyl]methylamino]methyl]pyrrolidin-2-one], 86 nM.

The compound `COc1nc(-c2cccc(-c3cccc(-c4ccn5cc(CNC[C@@H]6CCC(=O)N6)nc5c4)c3Cl)c2Cl)ccc1CNC[C@@H]1CCC(=O)N1` [Example 357, (5S)-5-[[[6-[2-Chloro-3-[2-chloro-3-[2-[[[(2S)-5-oxopyrrolidin-2-yl]methylamino]methyl]imidazo[1,2-a]pyridin-7-yl]phenyl]phenyl]-2-methoxy-3-pyridyl]methylamino]methyl]pyrrolidin-2-one] came in with an IC50 of 50 nM. As for `COC(=O)C1(CNCc2cnc3cc(-c4cccc(-c5cccc(-c6ccc(CNC[C@@H]7CCC(=O)N7)c(OC)n6)c5Cl)c4Cl)ccn3c2=O)COC1` [Example 358, methyl (S)-3-((((8-(2,2′-dichloro-3′-(6-methoxy-5-((((5-oxopyrrolidin-2-yl)-methyl)-amino)-methyl)-pyridin-2-yl)-[1,1′-biphenyl]-3-yl)-4-oxo-4H-pyrido[1,2-a]pyrimidin-3-yl)-methyl)-amino)-methyl)oxetane-3-carboxylate], the midpoint of inhibition, the IC50, lay at 0.1 nM. To `COc1nc(-c2cccc(-c3cccc(-c4ccn5c(=O)c(CNCC6NC(=O)CC6(C)C)cnc5c4)c3Cl)c2Cl)ccc1CNC[C@@H]1CCC(=O)N1` (stereo partly drawn) [Example 359, 8-(2,2′-dichloro-3′-(6-methoxy-5-(((((S)-5-oxopyrrolidin-2-yl)methyl)-amino)-methyl)-pyridin-2-yl)-[1,1′-biphenyl]-3-yl)-3-((((3,3-dimethyl-5-oxopyrrolidin-2-yl)methyl)amino)methyl)-4H-pyrido[1,2-a]pyrimidin-4-one] belongs 67 nM; to `COc1cc(-c2cccc(-c3cccc(-c4ccn5c(=O)c(CNC[C@@H]6CCC(=O)N6)cnc5c4)c3Cl)c2Cl)cnc1CNC[C@@H]1CCC(=O)N1` [Example 360, 8-(2,2′-Dichloro-3′-(5-methoxy-6-(((((S)-5-oxopyrrolidin-2-yl)-methyl)-amino)methyl)-pyridin-3-yl)-[1,1′-biphenyl]-3-yl)-3-(((((S)-5-oxopyrrolidin-2-yl)methyl)amino)methyl)-4H-pyrido[1,2-a]pyrimidin-4-one], 0.7 nM.

Consider `COc1cc(-c2cccc(-c3cccc(-c4ccn5c(=O)c(CN[C@H]6C[C@](C)(O)C6)cnc5c4)c3Cl)c2Cl)cnc1CN[C@H]1C[C@](C)(O)C1` [Example 361, 8-(2,2′-Dichloro-3′-(6-((((1r,3r)-3-hydroxy-3-methylcyclobutyl)amino)methyl)-5-methoxypyridin-3-yl)-[1,1′-biphenyl]-3-yl)-3-((((1r,3r)-3-hydroxy-3-methylcyclobutyl)amino)methyl)-4H-pyrido[1,2-a]pyrimidin-4-one], for which the IC50 came to 39 nM. To `COc1cc(-c2cccc(-c3cccc(-c4ccn5c(=O)c(CN(C)CCO)cnc5c4)c3Cl)c2Cl)cnc1CN(C)CCO` [Example 362, 8-(2,2′-Dichloro-3′-(6-(((2-hydroxyethyl)(methyl)amino)methyl)-5-methoxypyridin-3-yl)-[1,1′-biphenyl]-3-yl)-3-(((2-hydroxyethyl)(methyl)amino)methyl)-4H-pyrido[1,2-a]pyrimidin-4-one] belongs 36 nM.

Turning to `COc1nc(-c2cccc(-c3cccc(-c4ccc5c(c4)CNCCN5C)c3Cl)c2Cl)ccc1CNC[C@@H]1CCC(=O)N1` [Example 363, (S)-5-((((6-(2,2′-Dichloro-3′-(1-methyl-2,3,4,5-tetrahydro-1H-benzo[e][1,4]diazepin-7-yl)-[1,1′-biphenyl]-3-yl)-2-methoxypyridin-3-yl)methyl)amino)methyl)pyrrolidin-2-one], the IC50 is 85 nM. To `COc1nc(-c2cccc(-c3cccc(-c4ccc5c(c4)N(C)CCNC5)c3Cl)c2Cl)ccc1CNC[C@@H]1CCC(=O)N1` [Example 364, (S)-5-((((6-(2,2′-Dichloro-3′-(1-methyl-2,3,4,5-tetrahydro-1H-benzo[e][1,4]diazepin-8-yl)-[1,1′-biphenyl]-3-yl)-2-methoxypyridin-3-yl)methyl)amino)methyl)pyrrolidin-2-one] belongs 150 nM.

The compound `COc1nc(-c2cccc(-c3cccc(-c4ccc5c(c4)cc4n5CCNC4)c3Cl)c2Cl)ccc1CNC[C@@H]1CCC(=O)N1` [Example 365, (S)-5-((((6-(2,2′-Dichloro-3′-(1,2,3,4-tetrahydropyrazino[1,2-a]indol-8-yl)-[1,1′-biphenyl]-3-yl)-2-methoxypyridin-3-yl)methyl)amino)methyl)919yrrolidine-2-one] came in with an IC50 of 13 nM. The figure for `COc1nc(-c2cccc(-c3cccc(-c4ccc5c(n4)c(Cl)c(CNC[C@@H]4CCC(=O)N4)n5C)c3Cl)c2Cl)ccc1CNC[C@@H]1CCC(=O)N1` [Example 366, (S)-5-((((3-Chloro-5-(2,2′-dichloro-3′-(6-methoxy-5-(((((S)-5-oxopyrrolidin-2-yl)methyl)-amino)methyl)-pyridin-2-yl)-[1,1′-biphenyl]-3-yl)-1-methyl-1H-pyrrolo[3,2-b]pyridin-2-yl)methyl)amino)-methyl)-pyrrolidin-2-one] is 1.5 nM. To `COc1nc(-c2cccc(-c3cccc(-c4ccc5c(OC)c(CNC[C@H](C)O)cc(Cl)c5n4)c3Cl)c2Cl)ccc1CNC[C@@H]1CCC(=O)N1` [Example 367, (S)-5-((((6-(2,2′-Dichloro-3′-(8-chloro-6-((((S)-2-hydroxypropyl)amino)methyl)-5-methoxyquinolin-2-yl)-[1,1′-biphenyl]-3-yl)-2-methoxypyridin-3-yl)methyl)amino)methyl)pyrrolidin-2-one] belongs 21 nM; to `COc1nc(-c2cccc(-c3cccc(-c4ccn5c(=O)c(CNCC6(C)CCC(=O)N6)cnc5c4)c3Cl)c2Cl)ccc1CNC[C@@H]1CCC(=O)N1` (stereo partly drawn) [Example 368, 8-(2,2′-dichloro-3′-(6-methoxy-5-(((((S)-5-oxopyrrolidin-2-yl)-methyl)-amino)-methyl)-pyridin-2-yl)-[1,1′-biphenyl]-3-yl)-3-((((2-methyl-5-oxopyrrolidin-2-yl)methyl)-amino)-methyl)-4H-pyrido[1,2-a]pyrimidin-4-one], 1 nM. In turn, `COc1nc(-c2cccc(-c3cccc(-c4ccc5cc(CNC[C@@H]6CCC(=O)N6)ccc5n4)c3Cl)c2Cl)ccc1CNC[C@@H]1CCC(=O)N1` [Example 369, (5S)-5-[[[2-[2-Chloro-3-[2-chloro-3-[6-methoxy-5-[[[(2S)-5-oxopyrrolidin-2-yl]methylamino]methyl]-2-pyridyl]phenyl]phenyl]-6-quinolyl]methylamino]methyl]pyrrolidin-2-one] yielded an IC50 of 560 nM. The figure for `COc1nc(-c2cccc(-c3cccc(-c4cnc5cc(CNC[C@@H]6CCC(=O)N6)ccc5c4)c3Cl)c2Cl)ccc1CNC[C@@H]1CCC(=O)N1` [Example 370, (5S)-5-[[[3-[2-Chloro-3-[2-chloro-3-[6-methoxy-5-[[[(2S)-5-oxopyrrolidin-2-yl]methylamino]methyl]-2-pyridyl]phenyl]phenyl]-7-quinolyl]methylamino]methyl]pyrrolidin-2-one] is 580 nM; for `COc1nc(-c2cccc(-c3cccc(-c4ccn5c(=O)c(C)c(CNCCO)nc5c4)c3Cl)c2Cl)ccc1CNC[C@@H]1CCC(=O)N1` [Example 371, (S)-8-(2,2′-Dichloro-3′-(6-methoxy-5-((((5-oxopyrrolidin-2-yl)methyl)amino)methyl)pyridin-2-yl)-[1,1′-biphenyl]-3-yl)-2-(((2-hydroxyethyl)amino)methyl)-3-methyl-4H-pyrido[1,2-a]pyrimidin-4-one] it is 33 nM.

For the origin of these results see patent US20230143612A1 (Arbutus Biopharma Corporation, priority 2020, published 2023).
